Measurements reported in patent US8071587B2, “(Dihydro)imidazoiso[5,1-A]quinolines” (N. V. Organon, priority 2009, dated 2011).
Structures can show the parent of a compound that is named as a salt.

SMILES	melting point
C=CCN1CCN(C(=O)c2nc(-c3cccs3)c3n2CCc2cc(OC)c(OC(C)C)cc2-3)CCC1=O (as salt: salt) [Example 28, 4-Allyl-1-(9-isopropoxy-8-methoxy-1-thiophen-2-yl-5,6-dihydro-imidazo[5,1-a]isoquinoline-3-carbonyl)-[1,4]diazepan-5-one]	115 to 117 °C
COc1cc2c(cc1Br)-c1c(-c3cccs3)nc(C(=O)N(C)C(C)(C)C)n1CC2 [Example 1j, 9-Bromo-8-methoxy-1-thiophen-2-yl-5,6-dihydro-imidazo[5,1-a]isoquinoline-3-carboxylic acid tert-butyl-methyl-amide]	160 to 161 °C
COc1cc2c(cc1-c1ccccn1)-c1c(-c3cccs3)nc(C(=O)N(C)C(C)(C)C)n1CC2 [Example 2b, 8-Methoxy-9-pyridin-2-yl-1-thiophen-2-yl-5,6-dihydro-imidazo[5,1-a]isoquinoline-3-carboxylic acid tert-butyl-methyl-amide]	176 to 177 °C
COc1cc2c(cc1-c1cccc(F)n1)-c1c(-c3cccs3)nc(C(=O)N(C)C(C)(C)C)n1CC2 [Example 2c, 9-(6-Fluoro-pyridin-2-yl)-8-methoxy-1-thiophen-2-yl-5,6-dihydro-imidazo[5,1-a]isoquinoline-3-carboxylic acid tert-butyl-methyl-amide]	161 to 162 °C
COc1cc2c(cc1-c1cccc(NC(C)=O)c1)-c1c(-c3cccs3)nc(C(=O)N(C)C(C)(C)C)n1CC2 [Example 2f, 9-(3-Acetylamino-phenyl)-8-methoxy-1-thiophen-2-yl-5,6-dihydro-imidazo[5,1-a]isoquinoline-3-carboxylic acid tert-butyl-methyl-amide]	123 °C
COc1cc2c(cc1-c1cccc(-n3cccn3)c1)-c1c(-c3cccs3)nc(C(=O)N(C)C(C)(C)C)n1CC2 [Example 2g, 8-Methoxy-9-(3-pyrazol-1-yl-phenyl)-1-thiophen-2-yl-5,6-dihydro-imidazo[5,1-a]isoquinoline-3-carboxylic acid tert-butyl-methyl-amide]	180 °C
COc1cc2c(cc1-c1cccc(N3CCOCC3)c1)-c1c(-c3cccs3)nc(C(=O)N(C)C(C)(C)C)n1CC2 [Example 2h, 8-Methoxy-9-(3-morpholin-4-yl-phenyl)-1-thiophen-2-yl-5,6-dihydro-imidazo[5,1-a]isoquinoline-3-carboxylic acid tert-butyl-methyl-amide]	85 to 90 °C
COc1cc2c(cc1-c1cccc(F)c1)-c1c(-c3cccs3)nc(C(=O)N(C)C(C)(C)C)n1CC2 [Example 2i, 9-(3-Fluoro-phenyl)-8-methoxy-1-thiophen-2-yl-5,6-dihydro-imidazo[5,1-a]isoquinoline-3-carboxylic acid tert-butyl-methyl-amide]	165 °C
COc1cc2c(cc1-c1cccc(N)c1)-c1c(-c3cccs3)nc(C(=O)N(C)C(C)(C)C)n1CC2 [Example 2k, 9-(3-Amino-phenyl)-8-methoxy-1-thiophen-2-yl-5,6-dihydro-imidazo[5,1-a]isoquinoline-3-carboxylic acid tert-butyl-methyl-amide]	213 °C
COc1cc2c(cc1-c1cccc(N(C)C)c1)-c1c(-c3cccs3)nc(C(=O)N(C)C(C)(C)C)n1CC2 [Example 2l, 9-(3-Dimethylamino-phenyl)-8-methoxy-1-thiophen-2-yl-5,6-dihydro-imidazo[5,1-a]isoquinoline-3-carboxylic acid tert-butyl-methyl-amide]	149 °C
COc1cc2c(cc1-c1c(C)noc1C)-c1c(-c3cccs3)nc(C(=O)N(C)C(C)(C)C)n1CC2 [Example 2m, 9-(3,5-Dimethyl-isoxazol-4-yl)-8-methoxy-1-thiophen-2-yl-5,6-dihydro-imidazo[5,1-a]isoquinoline-3-carboxylic acid tert-butyl-methyl-amide]	183 to 184 °C
COc1cc2c(cc1-c1cccc(C(=O)N(C)C)c1)-c1c(-c3cccs3)nc(C(=O)N(C)C(C)(C)C)n1CC2 [Example 2n, 9-(3-Dimethylcarbamoyl-phenyl)-8-methoxy-1-thiophen-2-yl-5,6-dihydro-imidazo[5,1-a]iso-quinoline-3-carboxylic acid tert-butyl-methyl-amide]	151 °C
COc1cc2c(cc1-c1cccc(S(C)(=O)=O)c1)-c1c(-c3cccs3)nc(C(=O)N(C)C(C)(C)C)n1CC2 [Example 2p, 9-(3-Methanesulfonyl-phenyl)-8-methoxy-1-thiophen-2-yl-5,6-dihydro-imidazo[5,1-a]isoquinoline-3-carboxylic acid tert-butyl-methyl-amide]	216 °C
COc1ccccc1-c1cc2c(cc1OC)CCn1c(C(=O)N(C)C(C)(C)C)nc(-c3cccs3)c1-2 [Example 2q, 8-Methoxy-9-(2-methoxy-phenyl)-1-thiophen-2-yl-5,6-dihydro-imidazo[5,1-a]isoquinoline-3-carboxylic acid tert-butyl-methyl-amide]	188 to 189 °C
COc1cc2c(cc1-c1ccc3c(c1)OCO3)-c1c(-c3cccs3)nc(C(=O)N(C)C(C)(C)C)n1CC2 [Example 2r, 9-Benzo[1,3]dioxol-5-yl-8-methoxy-1-thiophen-2-yl-5,6-dihydro-imidazo[5,1-a]isoquinoline-3-carboxylic acid tert-butyl-methyl-amide]	162 °C
COc1cc2c(cc1C(=O)Nc1nncs1)-c1c(-c3cccs3)nc(C(=O)N(C)C(C)(C)C)n1CC2 [Example 3e, 8-Methoxy-1-thiophen-2-yl-5,6-dihydro-imidazo[5,1-a]isoquinoline-3,9-dicarboxylic acid 3-(tert-butyl-methyl-amide) 9-[1,3,4]thiadiazol-2-ylamide]	154 to 156 °C
CCc1nnc(NC(=O)c2cc3c(cc2OC)CCn2c(C(=O)N(C)C(C)(C)C)nc(-c4cccs4)c2-3)s1 [Example 4, 8-Methoxy-1-thiophen-2-yl-5,6-dihydro-imidazo[5,1-a]isoquinoline-3,9-dicarboxylic acid 3-(tert-butyl-methyl-amide) 9-[(5-ethyl-[1,3,4]thiadiazol-2-yl)-amide]]	238 to 240 °C
COc1cc2c(cc1C(=O)NC(C)C)-c1c(-c3cccs3)nc(C(=O)N(C)C(C)(C)C)n1CC2 [Example 5, 8-Methoxy-1-thiophen-2-yl-5,6-dihydro-imidazo[5,1-a]isoquinoline-3,9-dicarboxylic acid 3-(tert-butyl-methyl-amide) 9-isopropylamide]	197 to 198 °C
COc1cc2c(cc1NC(=O)c1cccnc1)-c1c(-c3cccs3)nc(C(=O)N(C)C(C)(C)C)n1CC2 [Example 9, 8-Methoxy-9-[(pyridine-3-carbonyl)-amino]-1-thiophen-2-yl-5,6-dihydro-imidazo[5,1-a]isoquinoline-3-carboxylic acid tert-butyl-methyl-amide]	159 to 161 °C
COc1cc2c(cc1NC(=O)c1nccs1)-c1c(-c3cccs3)nc(C(=O)N(C)C(C)(C)C)n1CC2 [Example 10, 8-Methoxy-9-[(thiazole-2-carbonyl)-amino]-1-thiophen-2-yl-5,6-dihydro-imidazo[5,1-a]isoquinoline-3-carboxylic acid tert-butyl-methyl-amide]	185 to 186 °C
COc1cc2c(cc1NC(=O)c1cscn1)-c1c(-c3cccs3)nc(C(=O)N(C)C(C)(C)C)n1CC2 [Example 11, 8-Methoxy-9-[(thiazole-4-carbonyl)-amino]-1-thiophen-2-yl-5,6-dihydro-imidazo[5,1-a]isoquinoline-3-carboxylic acid tert-butyl-methyl-amide]	240 to 242 °C
COc1cc2c(cc1NC(=O)c1csnn1)-c1c(-c3cccs3)nc(C(=O)N(C)C(C)(C)C)n1CC2 [Example 12, 8-Methoxy-9[([1,2,3]thiadiazole-4-carbonyl)-amino]-1-thiophen-2-yl-5,6-dihydro-imidazo[5,1-a]isoquinoline-3-carboxylic acid tert-butyl-methyl-amide]	210 to 212 °C
COc1cc2ccn3c(C(=O)N(C)C(C)(C)C)nc(-c4cccs4)c3c2cc1C=C(C)C [Example 16e, 8-Methoxy-9-(2-methyl-propenyl)-1-thiophen-2-yl-imidazo[5,1-a]isoquinoline-3-carboxylic acid tert-butyl-methyl-amide]	121 to 123 °C
COc1cc2ccn3c(C(=O)N(C)C(C)(C)C)nc(-c4cccs4)c3c2cc1-c1cnn(C)c1 [Example 17b, 8-Methoxy-9-(1-methyl-1H-pyrazol-4-yl)-1-thiophen-2-yl-imidazo[5,1-a]isoquinoline-3-carboxylic acid tert-butyl-methyl-amide]	239 to 241 °C
COc1cc2c(cc1CC(C)C)-c1c(-c3cccs3)nc(C(=O)N(C)C(C)(C)C)n1CC2 [Example 18k, 9-Isobutyl-8-methoxy-1-thiophen-2-yl-5,6-dihydro-imidazo[5,1-a]isoquinoline-3-carboxylic acid tert-butyl-methyl-amide]	124 °C
CC(C)Cc1ccc2c(c1)-c1c(-c3cccs3)nc(C(=O)N(C)C(C)(C)C)n1CC2 [Example 20b, 9-Isobutyl-1-thiophen-2-yl-5,6-dihydro-imidazo[5,1-a]isoquinoline-3-carboxylic acid tert-butyl-methyl-amide]	126 °C
CCN(C(=O)c1nc(-c2cccs2)c2n1CCc1cc(OC)c(OCCO)cc1-2)C(C)(C)C [Example 34b, 9-(2-Hydroxy-ethoxy)-8-methoxy-1-thiophen-2-yl-5,6-dihydro-imidazo[5,1-a]isoquinoline-3-carboxylic acid tert-butyl-ethyl-amide]	178 to 186 °C
COc1cc2c(cc1CC(C)C)-c1c(-c3ncco3)nc(C(=O)N(C)C(C)(C)C)n1CC2 [Example 37f, 9-Isobutyl-8-methoxy-1-oxazol-2-yl-5,6-dihydro-imidazo[5,1-a]isoquinoline-3-carboxylic acid tert-butyl-methyl-amide]	147 to 148 °C
COc1cc2c(cc1CC(C)C)-c1c(-c3cncs3)nc(C(=O)N(C)C(C)(C)C)n1CC2 [Example 38, 9-Isobutyl-8-methoxy-1-thiazol-5-yl-5,6-dihydro-imidazo[5,1-a]isoquinoline-3-carboxylic acid tert-butyl-methyl-amide]	144 to 145 °C
